# Assay results from patent US20050112573A1, “Method of detecting toxic substance” (priority 2001, published 2005).
# Tested on: yeast genes (level of expressed mRNA)
# Test: DNA chip analysis of expressed mRNA of yeast genes after 2 h culture with a toxic chemical substance
# Type: cell-based, Saccharomyces cerevisiae S288C
# Conditions: for The level of expressed mRNA in the presence of chemical substance/ (ratio to absence of chemical substance): stress protein genes, DNA chip
# Procedure: Yeast (Saccharomyces cerevtisiae S288C (α SUC2mal mel gap2 CUP1)) were cultured at 25° C. on YPD medium (yeast extract 1%, polypepton 2%, glucose 2%). One of toxic chemical substances was added to the cell at logarithmic growth phase, and the cell was further cultured for two hours. Cell was cultured without any chemical substance in the same condition, and was used as control. Concentrations of the chemical substances were defined to inhibit the growth of the yeast but not lead to death.
# After the completion of cultivation, the culture was centrifuged to collect the cells. To the cells, sodium acetate buffer (50 mM sodium acetate, 10 mM EDTA, 1% SDS) was added, and the mixture was shaken at 65° C. for five minutes, followed by returning to room temperature, and obtaining the supernatant, which procedure was repeated two times. To the supernatant, ½ amount of a solution of phenol/chloroform was added, and the mixture was centrifuged to give a supernatant, which was added with an equal amount of chloroform, and the mixture was centrifuged to give a supernatant. To the supernatant, an equal amount of isopropanol containing 0.3 M sodium acetate was added, and the mixture was allowed to stand at room temperature for 30 minutes, after which the mixture was centrifuged to give a sediment of the whole RNAs. Seventy % ethanol was added to the sediment, and the mixture was again centrifuged to give a sediment, which was then dried and dissolved in water. mRNA was isolated from the whole RNAs as followings. In view of the fact that a poly A chain is attached to the 3′ terminus of mRNA, a polynucleotide having a poly T structure which was immobilized on the surface of latex beads was used to trap the mRNA, and then the mRNA was washed and eluted with spine column (Oligotex-dT30<Super>mRNA Purification Kit, Takara). Reverse transcription of the mRNA was conducted with a reverse transcriptase (Super Script II Reverse Transcriptase; catalogue No. 18064-014, GibcoBRL) using fluorescence-labeled nucleotides to give cDNAs that were introduced with Cy3-dUTP or Cy5-dUTP during the reverse transcription.
# The labeled cDNAs were dissolved in TE buffer (10 mM Tris-HCl/1 mM EDTA, pH8.0), and the solution was dropped on the DNA chip containing the whole genes of yeast (DNA Chip Research Inc. Japan) so that the cDNAs were hybridized on the DNA chip at 65° C. for over 12 hours. The fluoresces intensity of the DNA chip was read with a scanner, and the ratio relative to the fluorescence intensity resulting from the absence of chemical substance was estimated as the following, which is shown in Tables 1 to 9: [formula]
# In the Tables, “Intensity” indicated in the rightmost column is a value of the level of expressed mRNA of each gene in control cells as divided by the average level of the expressions of the whole genes.
smiles,measurement,setting,value
"C[S+](C)[O-] [(15), dimethylsulfoxide]","The level of expressed mRNA in the presence of chemical substance/ in its absence, gene YDL078C","yeast gene YDL078C, ratio of DNA chip fluorescence intensity to that without chemical substance",0.5
same,"The level of expressed mRNA in the presence of chemical substance/ (in its absence), gene YDL215C","yeast gene YDL215C, ratio of DNA chip fluorescence intensity to that without chemical substance",1.1
same,The level of expressed mRNA in the presence of chemical substance/The level of expressed mRNA in the absence of chemical substance,yeast gene YDL238C,1.3
same,The level of expressed mRNA in the presence of chemical substance/The level of expressed mRNA in the absence of chemical substance,yeast gene YDR055W,5.7
same,"The level of expressed mRNA in the presence of chemical substance/ (in its absence), gene YDR073W","yeast gene YDR073W, ratio of DNA chip fluorescence intensity to that without chemical substance",0.8
same,"The level of expressed mRNA in the presence of chemical substance/ in its absence, gene YDR079W","yeast gene YDR079W, energy system protein genes, 2 h culture with the chemical, ratio to control without chemical",0.6
same,"The level of expressed mRNA in the presence of chemical substance/ (ratio to absence), gene YDR079W","yeast gene YDR079W, mitochondria-located protein genes, 2 h culture with chemical",0.6
same,The level of expressed mRNA in the presence of chemical substance/The level of expressed mRNA in the absence of chemical substance,yeast gene YDR084C,3.9
same,The level of expressed mRNA in the presence of chemical substance/The level of expressed mRNA in the absence of chemical substance,yeast gene YDR085C,3.1
same,The level of expressed mRNA in the presence of chemical substance/The level of expressed mRNA in the absence of chemical substance,yeast gene YDR104C,1.4
same,The level of expressed mRNA in the presence of chemical substance/The level of expressed mRNA in the absence of chemical substance,yeast gene YDR115W,0.8
same,The level of expressed mRNA in the presence of chemical substance/The level of expressed mRNA in the absence of chemical substance,yeast gene YDR259C,2.9
same,"The level of expressed mRNA in the presence of chemical substance/ (in its absence), gene YDR297W","yeast gene YDR297W, ratio of DNA chip fluorescence intensity to that without chemical substance",1.4
same,The level of expressed mRNA in the presence of chemical substance/The level of expressed mRNA in the absence of chemical substance,yeast gene YDR315C,1.5
same,The level of expressed mRNA in the presence of chemical substance/The level of expressed mRNA in the absence of chemical substance,yeast gene YDR358W,0.9
same,"The level of expressed mRNA in the presence of chemical substance/ (ratio to absence), gene YDR377W","yeast gene YDR377W, mitochondria-located protein genes, 2 h culture with chemical",0.6
same,"The level of expressed mRNA in the presence of chemical substance/ (in its absence), gene YDR387C","yeast gene YDR387C, ratio of DNA chip fluorescence intensity to that without chemical substance",1.4
same,The level of expressed mRNA in the presence of chemical substance/The level of expressed mRNA in the absence of chemical substance,yeast gene YDR388W,2.6
same,The level of expressed mRNA in the presence of chemical substance/The level of expressed mRNA in the absence of chemical substance,yeast gene YDR481C,3.5
same,The level of expressed mRNA in the presence of chemical substance/The level of expressed mRNA in the absence of chemical substance,yeast gene YDR510W,2.2
same,The level of expressed mRNA in the presence of chemical substance/ (ratio to absence of chemical substance),yeast gene YEL039C,0.4
same,The level of expressed mRNA in the presence of chemical substance/The level of expressed mRNA in the absence of chemical substance,yeast gene YEL066W,1.0
same,"The level of expressed mRNA in the presence of chemical substance/ (in its absence), gene YER015W","yeast gene YER015W, ratio of DNA chip fluorescence intensity to that without chemical substance",0.8
same,The level of expressed mRNA in the presence of chemical substance/The level of expressed mRNA in the absence of chemical substance,yeast gene YER039C,1.2
same,The level of expressed mRNA in the presence of chemical substance/ (ratio to absence of chemical substance),yeast gene YER057C,1.7
same,The level of expressed mRNA in the presence of chemical substance/The level of expressed mRNA in the absence of chemical substance,yeast gene YER107C,0.7
same,The level of expressed mRNA in the presence of chemical substance/The level of expressed mRNA in the absence of chemical substance,yeast gene YER130C,1.1
same,The level of expressed mRNA in the presence of chemical substance/The level of expressed mRNA in the absence of chemical substance,yeast gene YFL028C,0.8
same,The level of expressed mRNA in the presence of chemical substance/The level of expressed mRNA in the absence of chemical substance,yeast gene YFL043C,1.1
same,"The level of expressed mRNA in the presence of chemical substance/ (in its absence), gene YGL035C","yeast gene YGL035C, ratio of DNA chip fluorescence intensity to that without chemical substance",1.0
same,"The level of expressed mRNA in the presence of chemical substance/ (in its absence), gene YGL115W","yeast gene YGL115W, ratio of DNA chip fluorescence intensity to that without chemical substance",0.7
same,The level of expressed mRNA in the presence of chemical substance/ (ratio to absence of chemical substance),yeast gene YGL115W,0.7
same,The level of expressed mRNA in the presence of chemical substance/The level of expressed mRNA in the absence of chemical substance,yeast gene YGL158W,2.3
same,"The level of expressed mRNA in the presence of chemical substance/ (ratio to absence), gene YGL187C","yeast gene YGL187C, mitochondria-located protein genes, 2 h culture with chemical",0.3
same,"The level of expressed mRNA in the presence of chemical substance/ (in its absence), gene YGL205W","yeast gene YGL205W, ratio of DNA chip fluorescence intensity to that without chemical substance",2.0
same,The level of expressed mRNA in the presence of chemical substance/The level of expressed mRNA in the absence of chemical substance,yeast gene YGL229C,0.2
same,"The level of expressed mRNA in the presence of chemical substance/ in its absence, gene YGR062C","yeast gene YGR062C, energy system protein genes, 2 h culture with the chemical, ratio to control without chemical",0.5
same,"The level of expressed mRNA in the presence of chemical substance/ (ratio to absence), gene YGR062C","yeast gene YGR062C, mitochondria-located protein genes, 2 h culture with chemical",0.5
same,"The level of expressed mRNA in the presence of chemical substance/ (in its absence), gene YGR096W","yeast gene YGR096W, ratio of DNA chip fluorescence intensity to that without chemical substance",0.9
same,The level of expressed mRNA in the presence of chemical substance/The level of expressed mRNA in the absence of chemical substance,yeast gene YGR136W,2.6
same,The level of expressed mRNA in the presence of chemical substance/The level of expressed mRNA in the absence of chemical substance,yeast gene YGR189C,9.3
same,The level of expressed mRNA in the presence of chemical substance/The level of expressed mRNA in the absence of chemical substance,yeast gene YGR213C,6.5
same,The level of expressed mRNA in the presence of chemical substance/The level of expressed mRNA in the absence of chemical substance,yeast gene YGR257C,1.3
same,"The level of expressed mRNA in the presence of chemical substance/ (in its absence), gene YGR287C","yeast gene YGR287C, ratio of DNA chip fluorescence intensity to that without chemical substance",2.3
same,"The level of expressed mRNA in the presence of chemical substance/ (in its absence), gene YGR288W","yeast gene YGR288W, ratio of DNA chip fluorescence intensity to that without chemical substance",0.8
same,The level of expressed mRNA in the presence of chemical substance/ (ratio to absence of chemical substance),yeast gene YHL028W,0.6
same,The level of expressed mRNA in the presence of chemical substance/ (ratio to absence of chemical substance),yeast gene YHL046C,1.0
same,The level of expressed mRNA in the presence of chemical substance/The level of expressed mRNA in the absence of chemical substance,yeast gene YHR004C,1.2
same,The level of expressed mRNA in the presence of chemical substance/The level of expressed mRNA in the absence of chemical substance,yeast gene YHR071W,3.0
same,The level of expressed mRNA in the presence of chemical substance/The level of expressed mRNA in the absence of chemical substance,yeast gene YHR139C,1.9
same,The level of expressed mRNA in the presence of chemical substance/The level of expressed mRNA in the absence of chemical substance,yeast gene YHR142W,4.8
same,"The level of expressed mRNA in the presence of chemical substance/ (in its absence), gene YHR210C","yeast gene YHR210C, ratio of DNA chip fluorescence intensity to that without chemical substance",0.5
same,"The level of expressed mRNA in the presence of chemical substance/ (in its absence), gene YIL006W","yeast gene YIL006W, ratio of DNA chip fluorescence intensity to that without chemical substance",1.5
same,The level of expressed mRNA in the presence of chemical substance/ (ratio to absence of chemical substance),yeast gene YIL011W,0.9
same,The level of expressed mRNA in the presence of chemical substance/The level of expressed mRNA in the absence of chemical substance,yeast gene YIL123W,4.8
same,The level of expressed mRNA in the presence of chemical substance/The level of expressed mRNA in the absence of chemical substance,yeast gene YIL140W,3.3
same,"The level of expressed mRNA in the presence of chemical substance/ (in its absence), gene YJL070C","yeast gene YJL070C, ratio of DNA chip fluorescence intensity to that without chemical substance",3.5
